Our source for the IC50 values is US20240043448A1, “Small Molecule Inhibitors of KRAS G12C Mutant” (Merck Sharp & Dohme LLC, priority 2019, published 2024).

Read-outs that look alike come from different tables or passages of the source.

The subject of one assay is phospho-ERK. As to the kind of experiment: Cellular phospho-ERK assay. In kind it is cell-based. The note with it: NCI-H358 cells, 2 hour incubation, ratio of p-Erk vs total Erk, read-out: IC50 (nM) pERK (Cell). Put shortly:
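NCI-H358 cells seeded overnight, then exposed to compound dose-response titrations for 2 hours at 37° C. in RPMI. Lysates assayed by AlphaLISA SureFire Ultra multiplex for p-Erk and total Erk; ratio p-Erk/total Erk used as readout, IC50 from 4-parameter logistic fit.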

For assay [1], the target named is Biotinylated KRAS G12C protein (Homo sapiens (Human), UniProt P01116, C118S/C51S/C80L/G12C). As to the kind of experiment: SOS-catalyzed nucleotide exchange assay (TR-FRET). In kind it is biochemical. The note with it: in vitro apparent potency; preincubation time of 60 minutes prior to addition of SOS. Put shortly:
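Biotinylated KRAS G12C preloaded with Bodipy-GDP and Tb-streptavidin, then incubated with compound (10-point, 3-fold series) for 60 min at RT. Exchange started with SOS and GTP for 60 min. TR-FRET 520/495 ratio normalised to DMSO and saturating-inhibitor controls; four-parameter fit.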
A general note: Time-resolved FRET reads energy transfer from a long-lived donor to a nearby acceptor.

Broadly, the IC50 is the point on the concentration scale where inhibition reaches its midpoint.

In the case of `C=CC(=O)N1C[C@H](C)N(c2nc(=O)n3c4nc(c(F)cc24)-c2c(cc(F)c(F)c2F)OCCCc2ccnc(C(C)C)c2-3)C[C@H]1C` [Example 80, 2-[(2S,5R)-2,5-dimethyl-4-(prop-2-enoyl)piperazin-1-yl]-15,16,17,20-tetrafluoro-6-(propan-2-yl)-11,12-dihydro-4H,10H-1,18-ethenopyrido[4,3-d]pyrimido[1,6-g][1,7,9]benzoxadiazacyclododecin-4-one], the half-inhibitory concentration (IC50) in the assay on phospho-ERK (Homo sapiens, NCI-H358, 2 h) stood at 54 nM; in assay [1], 2.6 nM.
Consider `C=CC(=O)N1C[C@H](C)N(c2nc(=O)n3c4nc(c(F)cc24)-c2c(F)ccc(F)c2OCC2(CCc4ccnc(C(C)C)c4-3)CC2)C[C@H]1C` [Example 61, 2′-[(2S,5R)-2,5-dimethyl-4-(prop-2-enoyl)piperazin-1-yl]-15′,18′,21′-trifluoro-6′-(propan-2-yl)-10′,11′-dihydro-4′H,13′H-spiro[cyclopropane-1,12′-[14]oxa [3,5,7,20]tetraaza[1,19] (ethanediylidene)pyrido[4,3-f]pyrimido[1,6-h][1,8,10]benzoxadiazacyclotri-decin]-4′-one], for which the IC50 is 43 nM in the assay on phospho-ERK (Homo sapiens, NCI-H358, 2 h) and 2.3 nM in assay [1].
On to `C=CC(=O)N1CCN(c2nc(=O)n3c4nc(c(F)cc24)-c2cccc4cnn(c24)CCCOc2ccnc(C(C)C)c2-3)[C@H](C)C1` [Example 3b, 22-fluoro-2-[(2S)-2-methyl-4-(prop-2-enoyl)piperazin-1-yl]-6-(propan-2-yl)-12,13-dihydro-4H,11H-1,20-ethenopyrido[4′,3′:2,3]pyrimido[1′,6′:4,5][1,4,6,10]oxatriazacyclotridecino[8,9,10-hi]indazol-4-one], for which the values for the IC50 (with phospho-ERK; in assay [1]) were 93 nM and 15 nM, respectively.
The matching figures for `C=CC(=O)N1CC(C)N(c2nc(=O)n3c4nc(c(Cl)cc24)-c2c(F)ccc(F)c2OCCOc2ccnc(C(C)C)c2-3)CC1C` [Example 50, (5aSa,17aRa)-20-chloro-2-[(2S,5R)-2,5-dimethyl-4-(prop-2-enoyl)piperazin-1-yl]-14,17-difluoro-6-(propan-2-yl)-11,12-dihydro-4H-1,18-(ethanediylidene)pyrido[4,3-e]pyrimido[1,6-g][1,4,7,9]benzodioxadiazacyclododecin-4-one]: 4.4 nM and 1.1 nM.
For “17,20-difluoro-12-hydroxy-2-[(2S)-2-methyl-4-(prop-2-enoyl)piperazin-1-yl]-6-(propan-2-yl)-10,11,12,13-tetrahydro-4H-1,18-ethenopyrido[3,4-e]pyrimido[6,1-c][2,4]benzodiazacyclododecin-4-one [Example 118-1]”, the figures for the IC50 (in the assay with phospho-ERK; in assay [1]) were 651 nM and 192 nM, respectively.
For `C=CC(=O)N1C[C@H](C)N(c2nc(=O)n3c4nc(c(F)cc24)-c2c(F)cccc2OCC(F)(F)COc2ccnc(C(C)C)c2-3)C[C@H]1C` (single isomer, unassigned) [Example 13b], the IC50 in the assay with phospho-ERK is 22100 nM; in assay [1], 8530 nM.
Regarding `C=CC(=O)N1CC(C)N(c2nc(=O)n3c4nc(c(Cl)cc24)-c2c(F)cccc2COCCc2ccnc(C(C)C)c2-3)CC1C` [Example 109, 20-chloro-2-[(2S,5R)-2,5-dimethyl-4-(prop-2-enoyl)piperazin-1-yl]-17-fluoro-6-(propan-2-yl)-10,11-dihydro-1,18-ethenopyrido[3,4-e]pyrimido[6,1-c][9,2,4]benzoxadiazacyclododecin-4(13H)-one], the IC50 came to 21 nM in the assay with phospho-ERK and 2.3 nM in assay [1].
Take `C=CC(=O)N1C[C@H](C)N(c2nc(=O)n3c4nc(c(F)cc24)-c2cc(F)c(F)cc2OCCOc2ccnc(C(C)C)c2-3)C[C@H]1C` [Example 84, 2-[(2S,5R)-2,5-dimethyl-4-(prop-2-enoyl)piperazin-1-yl]-15,16,20-trifluoro-6-(propan-2-yl)-11,12-dihydro-4H-1,18-(ethanediylidene)pyrido[4,3-e]pyrimido[1,6-g][1,4,7,9]benzodioxadiazacyclododecin-4-one]: the 50% inhibitory concentration (IC50) in the assay with phospho-ERK (Homo sapiens, NCI-H358, 2 h) was determined as 119 nM; in assay [1] it was 38 nM.
As to `C=CC(=O)N1C[C@H](C)N(c2nc(=O)n3c4nc(c(F)cc24)-c2c(F)ccc(F)c2OCCOc2ccnc(Cl)c2-3)C[C@H]1C` [Example 87, 6-chloro-2-[(2S,5R)-2,5-dimethyl-4-(prop-2-enoyl)piperazin-1-yl]-14,17,20-trifluoro-11,12-dihydro-4H-1,18-ethenopyrido[4,3-e]pyrimido[1,6-g][1,4,7,9] benzodioxadiazacyclododecin-4-one], the IC50 in the assay on phospho-ERK (Homo sapiens, NCI-H358, 2 h) is 3210 nM; in assay [1] it was 461 nM.
“[(2S)-4-[17,20-difluoro-4- oxo-6-(propan-2-yl)-11,12- dihydro-4H-1,18- (ethanediylidene)pyrido[4,3- e]pyrimido[1,6-g][1,4,7,9] benzodioxadiazacyclo- dodecin-2-yl]-1-(prop-2- enoyl)piperazin-2- yl]acetonitrile [Example 14a]”: the IC50 in the assay on phospho-ERK amounted to 1240 nM; in assay [1], 8.1 nM.
In the case of `C=C(F)C(=O)N1CCN(c2nc(=O)n3c4nc(c(F)cc24)-c2c(F)cccc2OCCCCc2ccnc(C(C)C)c2-3)[C@@H](C)C1` [Example 85, 18,21-difluoro-2-[(2S)-4-(2-fluoroprop-2-enoyl)-2-methylpiperazin-1-yl]-6-(propan-2-yl)-10,11,12,13-tetrahydro-4H-1,19-ethenopyrido[4,3-f]pyrimido[1,6-h][1,8,10]benzoxadiazacyclotridecin-4-one], the IC50 was determined as 198 nM with phospho-ERK (Homo sapiens, NCI-H358, 2 h) and 47 nM in assay [1].
As to `C=CC(=O)N1C[C@H](C)N(c2nc(=O)n3c4nc(c(Cl)cc24)-c2c(F)cccc2OCCc2ccnc(C(C)C)c2-3)C[C@H]1C` (atropisomer, axis not shown) [Example 119, 19-chloro-2-[(2S,5R)-2,5-dimethyl-4-(prop-2-enoyl)piperazin-1-yl]-16-fluoro-6-(propan-2-yl)-10,11-dihydro-4H-1,17-ethenopyrido[4,3-d]pyrimido[1,6-f][1,6,8]benzoxadiazacycloundecin-4-one], the IC50 in the assay with phospho-ERK turned out to be 5.1 nM; in assay [1], 2.6 nM.
On to `[2H]C1([2H])Oc2ccc(F)c(F)c2-c2nc3c(cc2F)c(N2C[C@@H](C)N(C(=O)C=C)C[C@@H]2C)nc(=O)n3-c2c(ccnc2C(C)C)OC1([2H])[2H]` [Example 64, 2-[(2S,5R)-2,5-Dimethyl-4-(prop-2-enoyl)piperazin-1-yl]-16,17,20-trifluoro-6-(propan-2-yl)-11,12-di[(^2H)hydro](11,12-^2H2)-4H-1,18-(ethanediylidene)pyrido [4,3-e]pyrimido[1,6-g][1,4,7,9] benzodioxadiazacyclo-dodecin-4-one], for which the half-inhibitory concentration (IC50) in the assay with phospho-ERK (Homo sapiens, NCI-H358, 2 h) amounted to 33 nM; in assay [1], 5.7 nM.
For `C=CC(=O)N1CCN(c2nc(=O)n3c4nc(c(F)cc24)-c2c(F)cccc2COCCc2ccnc(C(C)C)c2-3)[C@@H](C)C1` [Example 18a, 17,20-difluoro-2-[(2S)-2-methyl-4-(prop-2-enoyl)piperazin-1-yl]-6-(propan-2-yl)-10,11-dihydro-1,18-ethenopyrido[3,4-e]pyrimido[6,1-c][9,2,4]benzoxadiazacyclododecin-4(13H)-one], the IC50 in the assay on phospho-ERK was found to be 35 nM; in assay [1] it was 10 nM.
For `C=CC(=O)N1CCN(c2nc(=O)n3c4nc(c(F)cc24)-c2cccnc2OCCCOc2ccnc(C(C)C)c2-3)[C@@H](C)C1` (single isomer, unassigned) [Example 2a], the IC50 with phospho-ERK (Homo sapiens, NCI-H358, 2 h) stood at 13900 nM; in assay [1], 2680 nM.
Regarding `C=CC(=O)N1C[C@H](C)N(c2nc(=O)n3c4nc(c(Cl)cc24)-c2c(F)cccc2OCC(F)(F)COc2ccnc(C(C)C)c2-3)C[C@H]1C` [Example 59, 21-chloro-2-[(2S,5R)-2,5-dimethyl-4-(prop-2-enoyl)piperazin-1-yl]-12,12,18-trifluoro-6-(propan-2-yl)-12,13-dihydro-4H,11H-1,19-(ethanediylidene)pyrido[4,3-f]pyrimido[1,6-h][1,5,8,10] benzodioxadiazacyclo-tridecin-4-one], the IC50 with phospho-ERK (Homo sapiens, NCI-H358, 2 h) came to 6.1 nM; in assay [1] it was 0.91 nM.
As to `C=CC(=O)N1C[C@H](C)N(c2nc(=O)n3c4nc(c(Cl)cc24)-c2c(ccc(F)c2F)OCCCc2ncnc(C(C)C)c2-3)C[C@H]1C` [Example 74, 20-chloro-2-[(2S,5R)-2,5-dimethyl-4-(prop-2-enoyl)piperazin-1-yl]-16,17-difluoro-6-(propan-2-yl)-11,12-dihydro-4H,10H-1,18-ethenodipyrimido[4,5-e:1′,6′-g][1,7,9]benzoxadiazacyclododecin-4-one], the IC50 with phospho-ERK (Homo sapiens, NCI-H358, 2 h) stood at 3.6 nM; in assay [1] it was 0.51 nM.
As for `[2H]C1([2H])Oc2ccnc(C(C)C)c2-n2c(=O)nc(N3C[C@@H](C)N(C(=O)C=C)C[C@@H]3C)c3cc(F)c(nc32)-c2c(F)ccc(F)c2OC1([2H])[2H]` [Example 67, 2-[(2S,5R)-2,5-Dimethyl-4-(prop-2-enoyl)piperazin-1-yl]-14,17,20-trifluoro-6-(propan-2-yl)-11,12-di[(^2H)hydro](11,12-^2H2)-4H-1,18-(ethanediylidene)pyrido [4,3-e]pyrimido[1,6-g][1,4,7,9] benzodioxadiazacyclo-dodecin-4-one], the IC50 stood at 50 nM with phospho-ERK (Homo sapiens, NCI-H358, 2 h) and 12 nM in assay [1].
The matching figures for `C=CC(=O)N1CCN(c2nc(=O)n3c4nc(c(F)cc24)-c2c(F)cccc2OCCCc2ccnc(C(C)C)c2-3)C(C)(C)C1` [Example 102, 2-[2,2-dimethyl-4-(prop-2-enoyl)piperazin-1-yl]-17,20-difluoro-6-(propan-2-yl)-11,12-dihydro-4H,10H-1,18-ethenopyrido[4,3-e]pyrimido[1,6-g][1,7,9] benzoxadiazacyclododecin-4-one]: 149 nM and 35 nM.
